Experimental data: ChEMBL document CHEMBL5055655, “Design, synthesis and bioactivity evaluation of fisetin derivatives as potential anti-inflammatory agents against LPS-induced acute lung injury” (Bioorg Med Chem, 2021)
Activity calls are given as the source filed them. No cut-off for these calls is given here.

Assays:
J774.A1 [1] = assay: Antiinflammatory activity in mouse J774.A1 cells assessed as inhibition of LPS-induced TNF-alpha secretion at 10 uM incubated for 2 followed by LPS stimulation and measured after 22 hrs by ELISA relative to control; assay type: functional; conditions: for Activity: time 24.0 hrs
J774.A1 [2] = assay: Antiinflammatory activity in mouse J774.A1 cells assessed as inhibition of LPS-induced IL6 secretion at 10 uM incubated for 2 followed by LPS stimulation and measured after 22 hrs by ELISA relative to control; assay type: functional; conditions: for Activity: time 24.0 hrs
J774.A1 [3] = assay: Cytotoxicity against mouse J774A.1 cells assessed as reduction in cell viability at 10 uM after 24 hrs by MTT assay; assay type: cell-based; conditions: j774.a1, 24 h
Mus musculus [4] = assay: Anti-inflammatory activity against C57BL/6 mouse model of LPS-induced acute lung injury assessed as reduction in cell count in broncho alveolar lavage fluid at 20 mg/kg, IG treated 0.5 hrs before LPS stimulation by ELISA; assay type: functional, organism-based
Mus musculus [5] = assay: Antiinflammatory activity against C57BL/6 mouse model of LPS-induced acute lung injury assessed as reduction in inflammatory infiltration at 20 mg/kg, IG treated 0.5 hrs before LPS challenge by H and E staining based histopathological analysis; assay type: functional, organism-based
Mus musculus [6] = assay: Antiinflammatory activity against C57BL/6 mouse model of LPS-induced acute lung injury assessed as reduction in alveolar septa thickening at 20 mg/kg, IG treated 0.5 hrs before LPS challenge by H and E staining based histopathological analysis; assay type: functional, organism-based
Mus musculus [7] = assay: Antiinflammatory activity against C57BL/6 mouse model of LPS-induced acute lung injury assessed as reduction in interstitial edema in lung tissue at 20 mg/kg, IG treated 0.5 hrs before LPS challenge by H and E staining based histopathological analysis; assay type: functional, organism-based
J774.A1 [8] = assay: Antiinflammatory activity in mouse J774.A1 cells assessed as inhibition of LPS-induced TNF-alpha secretion incubated for 2 followed by LPS stimulation and measured after 22 hrs by ELISA; assay type: functional, cell-based
J774.A1 [9] = assay: Antiinflammatory activity in mouse J774.A1 cells assessed as inhibition of LPS-induced IL6 secretion incubated for 2 followed by LPS stimulation and measured after 22 hrs by ELISA; assay type: functional, cell-based
Mus musculus [10] = assay: Antiinflammatory activity against C57BL/6 mouse model of LPS-induced acute lung injury assessed as reduction in pulmonary congestion at 20 mg/kg, IG treated 0.5 hrs before LPS challenge by H and E staining based histopathological analysis; assay type: functional, organism-based
Mus musculus [11] = assay: Antiinflammatory activity against C57BL/6 mouse model of LPS-induced acute lung injury assessed as reduction in lung tissue destruction at 20 mg/kg, IG treated 0.5 hrs before LPS challenge by H and E staining based histopathological analysis; assay type: functional, organism-based
Mus musculus [12] = assay: Anti-inflammatory activity against C57BL/6 mouse model of LPS-induced acute lung injury assessed as reduction in TNF-alpha secretion in broncho alveolar lavage fluid at 20 mg/kg, IG treated 0.5 hrs before LPS stimulation by ELISA; assay type: functional, organism-based
Mus musculus [13] = assay: Anti-inflammatory activity against C57BL/6 mouse model of LPS-induced acute lung injury assessed as reduction in IL6 secretion in broncho alveolar lavage fluid at 20 mg/kg, IG treated 0.5 hrs before LPS stimulation by ELISA; assay type: functional, organism-based
Mus musculus [14] = assay: Antiinflammatory activity in C57BL/6 mouse model of LPS-induced acute lung injury assessed as reduction in lung wet/dry ratio at 20 mg/kg, IG administered 30 mins prior to LPS instillation; assay type: functional, organism-based

Row | Compound | Activity (J774.A1 [1]) | Activity (J774.A1 [2]) | Activity (J774.A1 [3]) | further results
1 | O=C(/C=C/c1ccc(O)c(O)c1)c1cc(OCCN2CCOCC2)ccc1O | Active | Active | Non-Toxic | 
2 | O=C(/C=C/c1ccc(O)c(O)c1)c1cc(OCCN2CCCC2)ccc1O | Active | Active | Non-Toxic | 
3 | O=C(/C=C/c1ccc(O)c(O)c1)c1ccc(OCCCN2CCCC2)cc1O | Active | Active | Non-Toxic | 
4 | O=c1c(O)c(-c2ccc(O)c(O)c2)oc2ccc(Br)cc12 | Active | Active | Non-Toxic | 
5 | O=c1c(O)c(-c2ccc(O)c(O)c2)oc2cc(O)ccc12 [FISETIN] | Active | Active | Non-Toxic | Activity (Mus musculus [4]): Active
6 | CN1CCN(CCCOc2ccc(O)c(C(=O)/C=C/c3ccc(O)c(O)c3)c2)CC1 | Active | Active | Non-Toxic | 
7 | O=c1c(O)c(-c2ccc(O)c(O)c2)oc2cc(Br)ccc12 | Active | Active | Non-Toxic | 
8 | O=C(/C=C/c1ccc(O)c(O)c1)c1cc(OCCCN2CCCCC2)ccc1O | Active | Active | Non-Toxic | 
9 | O=C(/C=C/c1ccc(O)c(O)c1)c1cc(OCCCN2CCCC2)ccc1O | Active | Active | Non-Toxic | 
10 | COc1ccc2c(=O)c(O)c(-c3ccc(O)c(O)c3)oc2c1 | Active | Active | Non-Toxic | 
11 | O=C(/C=C/c1ccc(O)c(O)c1)c1cc(Br)ccc1O | Active | Active | Non-Toxic | 
12 | O=C(/C=C/c1ccc(O)c(O)c1)c1cc(OCCCN2CCOCC2)ccc1O | Active | Active | Non-Toxic | 
13 | O=C(/C=C/c1ccc(O)c(O)c1)c1ccc(OCCN2CCCC2)cc1O | Active | Active | Non-Toxic | 
14 | COc1ccc(C(=O)/C=C/c2ccc(O)c(O)c2)c(O)c1 [CALYTHROPSIN] | Active | Active | Non-Toxic | 
15 | CN(C)CCCOc1ccc(C(=O)/C=C/c2ccc(O)c(O)c2)c(O)c1 |  |  | Non-Toxic | Activity (Mus musculus [5]): Active; Activity (Mus musculus [6]): Active; Activity (Mus musculus [7]): Active; inhibition at 10 µM (J774.A1 [1]; time 24 hrs): 76.4%; IC50 (J774.A1 [8]; J774.A1, 22 h): 2.58 µM; inhibition (J774.A1 [8]; time 24.0 hrs): Dose-dependent effect; IC50 (J774.A1 [9]; J774.A1, 22 h): 8.25 µM; inhibition (J774.A1 [9]; time 24.0 hrs): Dose-dependent effect; Activity (Mus musculus [10]): Active; inhibition at 10 µM (J774.A1 [2]; time 24 hrs): 89.6%; Activity (Mus musculus [11]): Active; Activity (Mus musculus [4]): Active; Activity (Mus musculus [12]): Active; Activity (Mus musculus [13]): Active; Activity (Mus musculus [14]): Active
16 | COc1cc(O)c(C(=O)/C=C/c2ccc(O)c(O)c2)cc1OC | Active | Active | Non-Toxic | 
17 | O=C(/C=C/c1ccc(O)c(O)c1)c1ccc(F)cc1O | Active | Active | Non-Toxic | 
18 | CN(C)CCCOc1ccc(O)c(C(=O)/C=C/c2ccc(O)c(O)c2)c1 | Active | Active | Non-Toxic | 
19 | O=c1c(O)c(-c2ccc(O)c(O)c2)oc2cc(F)ccc12 | Active | Active | Non-Toxic | 
20 | O=C(/C=C/c1ccc(O)c(O)c1)c1ccc([N+](=O)[O-])cc1O | Active | Active | Non-Toxic | 
21 | O=C(/C=C/c1ccc(O)c(O)c1)c1ccc(OCCCN2CCOCC2)cc1O | Active | Active | Non-Toxic | 
22 | O=C(/C=C/c1ccc(O)c(O)c1)c1ccc(Br)cc1O | Active | Active | Non-Toxic | 
23 | O=C(/C=C/c1ccc(O)c(O)c1)c1ccc(OCCN2CCOCC2)cc1O | Active | Active | Non-Toxic | 
24 | O=C(/C=C/c1ccc(O)c(O)c1)c1ccc(OCCCN2CCCCC2)cc1O | Active | Active | Non-Toxic | 
25 | O=c1c(O)c(-c2ccc(O)c(O)c2)oc2ccc(F)cc12 | Active | Active | Non-Toxic | 
26 | O=C(/C=C/c1ccc(O)c(O)c1)c1cc(F)ccc1O | Active | Active | Non-Toxic | 
